Measured values reported in patent publication US12252524B2, “GIP/GLP1 co-agonist compounds” (Eli Lilly and Company, priority 2018, dated 2025).
Numbered stars: 1 amine (or outer) side, 2 acyl side, 3 side chain; on linkers, the order of the positions; unused ones are H or OH. Square brackets hold non-standard residues; d marks the D form. Side chains are listed from the residue outwards. Peptide text beside a SMILES is read from it. * marks the point of attachment. C20 diacid = O=C(O)CCCCCCCCCCCCCCCCCCC(=O)*; γGlu = O=C(O)[C@H](CCC(=O)[*:2])N[*:1]; αMeL = CC(C)C[C@](C)(N)C(=O)O; AEEA = NCCOCCOCC(=O)O; Aib = CC(C)(N)C(=O)O

What was measured:
human GIP receptor = target: T1, human GIP receptor (Homo sapiens, UniProt P48546); experiment: [125I]-GIP binding (SPA), human GIP receptor; conditions: read-out: hGIPR Ki, nM (SEM, n)
T1 construct: expressed in transfected cells; crude membranes
T1 sequence (P48546 22-466): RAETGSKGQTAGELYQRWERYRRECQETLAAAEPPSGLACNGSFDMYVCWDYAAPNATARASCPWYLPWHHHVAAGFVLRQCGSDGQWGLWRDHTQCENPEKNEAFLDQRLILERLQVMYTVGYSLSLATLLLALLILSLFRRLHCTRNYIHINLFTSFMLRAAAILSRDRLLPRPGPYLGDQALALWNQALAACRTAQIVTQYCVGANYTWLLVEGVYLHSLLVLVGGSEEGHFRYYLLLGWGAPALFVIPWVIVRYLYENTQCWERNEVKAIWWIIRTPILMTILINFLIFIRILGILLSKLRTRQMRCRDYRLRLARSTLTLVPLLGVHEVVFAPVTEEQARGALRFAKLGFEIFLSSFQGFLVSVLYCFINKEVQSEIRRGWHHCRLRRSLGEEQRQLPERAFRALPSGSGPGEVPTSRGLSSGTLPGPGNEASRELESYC

human Gcg receptor = target: T2, human Gcg receptor (Homo sapiens, UniProt P47871); experiment: [125I]-Glucagon binding (SPA), human Gcg receptor; conditions: read-out: hGLcgR Ki, nM (SEM, n)
T2 construct: expressed in transfected cells; crude membranes
Method in brief: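 Crude membranes from cells expressing the receptor, prepared by hypotonic lysis in 50 mM Tris HCl pH 7.5 with protease inhibitors, homogenization and differential centrifugation, were used in a WGA-bead SPA. Binding buffer: 25 mM HEPES pH 7.4, 2.5 mM CaCl2, 1 mM MgCl2, bacitracin, Tween-20.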

[1] = target: human GLP-1 receptor (GLP-1R) (Homo sapiens, UniProt P43220); experiment: cAMP pharmacological functional assay in presence of casein, hGLP-1R; assay type: cell-based; conditions: HEK293 cells expressing hGLP-1R, 0.1% Casein, geometric mean; read-out: hGLP1R cAMP Rel EC50 nM (SEM, n)
human GLP-1R = human GLP-1R (Homo sapiens, UniProt P43220); experiment: [125I]-GLP-1 binding (SPA), human GLP-1 receptor; design: expressed in transfected cells; crude membranes; conditions: read-out: hGLP1R Ki, (nM) (SEM, n)
Method in brief: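 Membranes: hypotonic lysis (50 mM Tris HCl, pH 7.5, protease inhibitors), Potter-Elvehjem homogenization, high-speed pellet (35000×g 1 h or 25000×g 30 min, 4° C.). Buffer: 25 mM HEPES pH 7.4, 2.5 mM CaCl2, 1 mM MgCl2. Four-parameter IC50 fit; Ki as geometric mean ± SEM.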

[2] = target: T3, gastric inhibitory peptide receptor (GIPR) (Homo sapiens, UniProt P48546); experiment: cAMP pharmacological functional assay in presence of casein, hGIPR; assay type: cell-based; conditions: HEK293 cells expressing hGIPR, 0.1% Casein, geometric mean; read-out: hGIPR cAMP Rel EC50 nM (SEM, n)
T3 sequence (P48546 22-466): T1 sequence (P48546 22-466)

T2 sequence (P47871 26-477): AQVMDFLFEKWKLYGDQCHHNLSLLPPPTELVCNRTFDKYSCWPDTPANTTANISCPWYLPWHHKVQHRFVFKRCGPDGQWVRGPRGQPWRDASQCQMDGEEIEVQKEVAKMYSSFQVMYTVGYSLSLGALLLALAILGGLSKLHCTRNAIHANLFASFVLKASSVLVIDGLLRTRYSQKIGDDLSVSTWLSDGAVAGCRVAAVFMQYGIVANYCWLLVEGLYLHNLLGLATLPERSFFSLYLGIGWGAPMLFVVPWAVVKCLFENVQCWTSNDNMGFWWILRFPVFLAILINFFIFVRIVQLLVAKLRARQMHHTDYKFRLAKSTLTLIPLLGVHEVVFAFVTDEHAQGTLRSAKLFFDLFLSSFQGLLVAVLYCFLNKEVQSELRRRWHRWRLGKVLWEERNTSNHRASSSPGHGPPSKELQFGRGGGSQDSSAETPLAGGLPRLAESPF
human GLP-1 receptor (GLP-1R), sequence (P43220 24-463): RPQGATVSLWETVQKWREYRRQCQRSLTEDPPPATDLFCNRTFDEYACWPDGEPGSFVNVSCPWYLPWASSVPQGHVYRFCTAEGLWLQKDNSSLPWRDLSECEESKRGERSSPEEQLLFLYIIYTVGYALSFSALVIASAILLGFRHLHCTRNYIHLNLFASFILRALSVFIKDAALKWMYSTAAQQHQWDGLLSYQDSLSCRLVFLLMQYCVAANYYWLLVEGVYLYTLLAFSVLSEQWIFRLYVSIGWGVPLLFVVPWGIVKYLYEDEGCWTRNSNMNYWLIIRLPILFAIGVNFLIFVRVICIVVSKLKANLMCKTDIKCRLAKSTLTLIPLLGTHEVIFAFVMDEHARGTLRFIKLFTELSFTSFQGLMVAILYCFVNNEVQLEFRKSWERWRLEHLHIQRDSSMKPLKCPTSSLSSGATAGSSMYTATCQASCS
human GLP-1R, sequence (P43220 24-463): as above

SMILES | Ki (human GIP receptor) [nM] | Ki (human Gcg receptor) [nM] | EC50 [1] [nM] | Ki (human GLP-1R) [nM] | EC50 [2] [nM]
CC[C@H](C)[C@H](NC(=O)[C@H](CC(C)C)NC(=O)[C@H](Cc1ccc(O)cc1)NC(=O)[C@H](CCC(=O)O)NC(=O)[C@@H](NC(=O)[C@H](Cc1ccccc1)NC(=O)[C@H](C)NC(=O)C(C)(C)NC(=O)[C@H](CCC(N)=O)NC(=O)[C@H](C)NC(=O)[C@H](CCCCNC(=O)COCCOCCNC(=O)COCCOCCNC(=O)CC[C@H](NC(=O)CCCCCCCCCCCCCCCCCCC(=O)O)C(=O)O)NC(=O)[C@H](CCCCN)NC(=O)[C@H](CC(=O)O)NC(=O)[C@H](CC(C)C)NC(=O)[C@H](CC(C)C)NC(=O)[C@@H](NC(=O)[C@H](CO)NC(=O)[C@H](Cc1ccc(O)cc1)NC(=O)[C@H](CC(=O)O)NC(=O)[C@H](CO)NC(=O)[C@@H](NC(=O)[C@](C)(Cc1ccccc1)NC(=O)[C@@H](NC(=O)CNC(=O)[C@H](CCC(=O)O)NC(=O)C(C)(C)NC(=O)[C@@H](N)Cc1ccc(O)cc1)[C@@H](C)O)[C@@H](C)O)[C@@H](C)CC)[C@@H](C)CC)C(=O)N[C@@H](CCC(=O)O)C(=O)NCC(=O)NCC(=O)N1CCC[C@H]1C(=O)N[C@@H](CO)C(=O)N[C@@H](CO)C(=O)NCC(=O)N[C@@H](C)C(=O)N1CCC[C@H]1C(=O)N1CCC[C@H]1C(=O)N1CCC[C@H]1C(=O)N[C@@H](CO)C(N)=O [Example 57] | 0.0583 | 26.1 | 0.0668 | 3 | 0.0849
CC[C@H](C)[C@H](NC(=O)[C@H](CC(C)C)NC(=O)[C@H](Cc1ccc(O)cc1)NC(=O)[C@H](CCC(=O)O)NC(=O)[C@@H](NC(=O)[C@H](Cc1ccccc1)NC(=O)[C@H](C)NC(=O)C(C)(C)NC(=O)[C@H](CCC(N)=O)NC(=O)[C@H](C)NC(=O)[C@H](CCCCNC(=O)COCCOCCNC(=O)COCCOCCNC(=O)CC[C@H](NC(=O)CCCCCCCCCCCCCCCCCCC(=O)O)C(=O)O)NC(=O)[C@H](CCCCN)NC(=O)[C@H](CC(=O)O)NC(=O)[C@H](CC(C)C)NC(=O)[C@H](CC(C)C)NC(=O)[C@H](CO)NC(=O)[C@H](CO)NC(=O)[C@H](Cc1ccc(O)cc1)NC(=O)[C@H](CC(=O)O)NC(=O)[C@H](CO)NC(=O)[C@@H](NC(=O)[C@H](Cc1ccccc1)NC(=O)[C@@H](NC(=O)CNC(=O)[C@H](CCC(=O)O)NC(=O)C(C)(C)NC(=O)[C@@H](N)Cc1ccc(O)cc1)[C@@H](C)O)[C@@H](C)O)[C@@H](C)CC)C(=O)N[C@@H](CCC(=O)O)C(=O)NCC(=O)NCC(=O)N1CCC[C@H]1C(=O)N[C@@H](CO)C(=O)N[C@@H](CO)C(=O)NCC(=O)N[C@@H](C)C(=O)N1CCC[C@H]1C(=O)N1CCC[C@H]1C(=O)N1CCC[C@H]1C(=O)N[C@@H](CO)C(N)=O [Example 58] (H-Y[Aib]EGTFTSDYSSLLDKK([AEEA-AEEA-γGlu-C20 diacid])AQ[Aib]AFIEYLIEGGPSSGAPPPS-NH2; N-terminus assumed) | 0.105 | 339 | 0.18 | 2.77 | 0.266
CC[C@H](C)[C@H](NC(=O)[C@H](CC(C)C)NC(=O)[C@H](Cc1ccc(O)cc1)NC(=O)[C@H](CCC(=O)O)NC(=O)[C@@H](NC(=O)[C@H](Cc1ccccc1)NC(=O)[C@H](C)NC(=O)C(C)(C)NC(=O)[C@H](CCC(N)=O)NC(=O)[C@H](C)NC(=O)[C@H](CCCCNC(=O)COCCOCCNC(=O)COCCOCCNC(=O)CC[C@H](NC(=O)CCCCCCCCCCCCCCCCCCC(=O)O)C(=O)O)NC(=O)[C@H](CCC(=O)O)NC(=O)[C@H](CC(=O)O)NC(=O)[C@H](CC(C)C)NC(=O)[C@](C)(CC(C)C)NC(=O)[C@@H](NC(=O)[C@H](CO)NC(=O)[C@H](Cc1ccc(O)cc1)NC(=O)[C@H](CC(=O)O)NC(=O)[C@H](CO)NC(=O)[C@@H](NC(=O)[C@H](Cc1ccccc1)NC(=O)[C@@H](NC(=O)CNC(=O)[C@H](CCC(=O)O)NC(=O)C(C)(C)NC(=O)[C@@H](N)Cc1ccc(O)cc1)[C@@H](C)O)[C@@H](C)O)[C@@H](C)CC)[C@@H](C)CC)C(=O)N[C@@H](CCC(=O)O)C(=O)NCC(=O)NCC(=O)N1CCC[C@H]1C(=O)N[C@@H](CO)C(=O)N[C@@H](CO)C(=O)NCC(=O)N[C@@H](C)C(=O)N1CCC[C@H]1C(=O)N1CCC[C@H]1C(=O)N1CCC[C@H]1C(=O)N[C@@H](CO)C(N)=O [Example 59] (H-Y[Aib]EGTFTSDYSI[αMeL]LDEK([AEEA-AEEA-γGlu-C20 diacid])AQ[Aib]AFIEYLIEGGPSSGAPPPS-NH2) | 0.136 | 292 | 0.084 | 8.2 | 0.0922
CC[C@H](C)[C@H](NC(=O)[C@H](CC(C)C)NC(=O)[C@H](Cc1ccc(O)cc1)NC(=O)[C@H](CCC(=O)O)NC(=O)[C@@H](NC(=O)[C@H](Cc1ccccc1)NC(=O)[C@H](C)NC(=O)C(C)(C)NC(=O)[C@H](CCC(N)=O)NC(=O)[C@H](C)NC(=O)[C@H](CCCCNC(=O)COCCOCCNC(=O)COCCOCCNC(=O)CC[C@H](NC(=O)CCCCCCCCCCCCCCCCCCC(=O)O)C(=O)O)NC(=O)C(C)(C)NC(=O)[C@H](CC(=O)O)NC(=O)[C@H](CC(C)C)NC(=O)[C@](C)(CC(C)C)NC(=O)[C@@H](NC(=O)[C@H](CO)NC(=O)[C@H](Cc1ccc(O)cc1)NC(=O)[C@H](CC(=O)O)NC(=O)[C@H](CO)NC(=O)[C@@H](NC(=O)[C@H](Cc1ccccc1)NC(=O)[C@@H](NC(=O)CNC(=O)[C@H](CCC(=O)O)NC(=O)C(C)(C)NC(=O)[C@@H](N)Cc1ccc(O)cc1)[C@@H](C)O)[C@@H](C)O)[C@@H](C)CC)[C@@H](C)CC)C(=O)N[C@@H](CCC(=O)O)C(=O)NCC(=O)NCC(=O)N1CCC[C@H]1C(=O)N[C@@H](CO)C(=O)N[C@@H](CO)C(=O)NCC(=O)N[C@@H](C)C(=O)N1CCC[C@H]1C(=O)N1CCC[C@H]1C(=O)N1CCC[C@H]1C(=O)N[C@@H](CO)C(N)=O [Example 60] (H-Y[Aib]EGTFTSDYSI[αMeL]LD[Aib]K([AEEA-AEEA-γGlu-C20 diacid])AQ[Aib]AFIEYLIEGGPSSGAPPPS-NH2) | 0.0655 | 237 | 0.287 | 9.55 | 0.135
CC[C@H](C)[C@H](NC(=O)[C@H](Cc1ccccc1)NC(=O)[C@H](C)NC(=O)C(C)(C)NC(=O)[C@H](CCC(N)=O)NC(=O)[C@H](C)NC(=O)[C@H](CCCCNC(=O)COCCOCCNC(=O)COCCOCCNC(=O)CC[C@H](NC(=O)CCCCCCCCCCCCCCCCCCC(=O)O)C(=O)O)NC(=O)[C@H](CO)NC(=O)[C@H](CC(=O)O)NC(=O)[C@H](CC(C)C)NC(=O)[C@](C)(CC(C)C)NC(=O)[C@@H](NC(=O)[C@H](CO)NC(=O)[C@H](Cc1ccc(O)cc1)NC(=O)[C@H](CC(=O)O)NC(=O)[C@H](CO)NC(=O)[C@@H](NC(=O)[C@H](Cc1ccccc1)NC(=O)[C@@H](NC(=O)CNC(=O)[C@H](CCC(=O)O)NC(=O)C(C)(C)NC(=O)[C@@H](N)Cc1ccc(O)cc1)[C@@H](C)O)[C@@H](C)O)[C@@H](C)CC)C(=O)N[C@@H](CCC(=O)O)C(=O)N[C@@H](Cc1ccc(O)cc1)C(=O)N[C@@H](CC(C)C)C(=O)N[C@@H](CC(C)C)C(=O)N[C@@H](CCC(=O)O)C(=O)NCC(=O)NCC(=O)N1CCC[C@H]1C(=O)N[C@@H](CO)C(=O)N[C@@H](CO)C(=O)NCC(=O)N[C@@H](C)C(=O)N1CCC[C@H]1C(=O)N1CCC[C@H]1C(=O)N1CCC[C@H]1C(=O)N[C@@H](CO)C(N)=O [Example 61] (H-Y[Aib]EGTFTSDYSI[αMeL]LDSK([AEEA-AEEA-γGlu-C20 diacid])AQ[Aib]AFIEYLLEGGPSSGAPPPS-NH2) | 0.102 | 110 | 0.371 | 11.1 | 0.0739
